ChEMBL document CHEMBL3352064, “Synthesis and bioactive evaluation of a novel series of coumarinazoles” (Bioorg Med Chem Lett, 2014)
In brackets after ≈: the same amount, converted by molar mass.

Experiments:
Cyberlindnera jadinii = assay: Antimicrobial activity against Candida utilis by two-fold serial dilution technique; assay type: functional; details: Williopsis jadinii
Bacillus subtilis = assay: Antimicrobial activity against Bacillus subtilis by two-fold serial dilution technique; assay type: functional
Micrococcus luteus = assay: Antimicrobial activity against Micrococcus luteus ATCC 4698 by two-fold serial dilution technique; assay type: functional
Candida albicans = assay: Antimicrobial activity against Candida albicans by two-fold serial dilution technique; assay type: functional
Staphylococcus aureus = assay: Antimicrobial activity against methicillin-resistant Staphylococcus aureus N315 by two-fold serial dilution technique; assay type: functional
Candida = assay: Antimicrobial activity against Candida mycoderma by two-fold serial dilution technique; assay type: functional
Pseudomonas aeruginosa = assay: Antimicrobial activity against Pseudomonas aeruginosa by two-fold serial dilution technique; assay type: functional
Saccharomyces cerevisiae = assay: Antimicrobial activity against Saccharomyces cerevisiae by two-fold serial dilution technique; assay type: functional
Aspergillus flavus = assay: Antimicrobial activity against Aspergillus flavus by two-fold serial dilution technique; assay type: functional
Shigella dysenteriae = assay: Antimicrobial activity against Shigella dysenteriae by two-fold serial dilution technique; assay type: functional
Escherichia coli = assay: Antimicrobial activity against Escherichia coli JM109 by two-fold serial dilution technique; assay type: functional
[1] = n-Octanol-water partition coefficient, log P of the compound after 24 hrs by shake flask method; assay type: physicochemical

SMILES	MIC (Cyberlindnera jadinii) [µg/mL]	MIC (Bacillus subtilis) [µg/mL]	MIC (Micrococcus luteus) [µg/mL]	MIC (Candida albicans) [µg/mL]	MIC (Staphylococcus aureus) [µg/mL]	MIC (Candida) [µg/mL]	MIC (Pseudomonas aeruginosa) [µg/mL]	MIC (Saccharomyces cerevisiae) [µg/mL]	MIC (Aspergillus flavus) [µg/mL]	MIC (Shigella dysenteriae) [µg/mL]	MIC (Escherichia coli) [µg/mL]	logP at 24 h [1]
Cc1cc(=O)oc2cc(OCC3CO3)ccc12 (stereo not drawn)	32 (≈ 138 µM)	2 (≈ 8.61 µM)	4 (≈ 17.2 µM)	16 (≈ 68.9 µM)	128 (≈ 551 µM)	8 (≈ 34.4 µM)	8 (≈ 34.4 µM)	1 (≈ 4.31 µM)	1 (≈ 4.31 µM)	4 (≈ 17.2 µM)	0.5 (≈ 2.15 µM)	
Cc1cc(=O)oc2cc(OCC(O)Cn3cncn3)ccc12 (stereo not drawn)	4 (≈ 13.3 µM)	32 (≈ 106 µM)	16 (≈ 53.1 µM)	4 (≈ 13.3 µM)	32 (≈ 106 µM)	16 (≈ 53.1 µM)	4 (≈ 13.3 µM)	32 (≈ 106 µM)	6 (≈ 19.9 µM)	32 (≈ 106 µM)	64 (≈ 212 µM)	0.45
Cc1cc(=O)oc2cc(OCC(O)Cn3nnc4ccccc43)ccc12 (stereo not drawn)	16 (≈ 45.5 µM)	16 (≈ 45.5 µM)	32 (≈ 91.1 µM)	4 (≈ 11.4 µM)	16 (≈ 45.5 µM)	16 (≈ 45.5 µM)	32 (≈ 91.1 µM)	8 (≈ 22.8 µM)	256 (≈ 729 µM)	64 (≈ 182 µM)	16 (≈ 45.5 µM)	0.6
Cc1cc(=O)oc2cc(OCC(O)Cn3cnc4ccccc43)ccc12 (stereo not drawn)	512 (≈ 1460 µM)	128 (≈ 365 µM)	512 (≈ 1460 µM)	128 (≈ 365 µM)	512 (≈ 1460 µM)	128 (≈ 365 µM)	> 512	512 (≈ 1460 µM)	> 512	512 (≈ 1460 µM)	128 (≈ 365 µM)	0.55
Cc1cc2ncn(CC(O)COc3ccc4c(C)cc(=O)oc4c3)c2cc1C (stereo not drawn)	4 (≈ 10.6 µM)	128 (≈ 338 µM)	128 (≈ 338 µM)	16 (≈ 42.3 µM)	64 (≈ 169 µM)	16 (≈ 42.3 µM)	64 (≈ 169 µM)	32 (≈ 84.6 µM)	128 (≈ 338 µM)	64 (≈ 169 µM)	128 (≈ 338 µM)	0.61
Cc1cc(=O)oc2cc(OCC(O)CSc3nc4ccccc4[nH]3)ccc12 (stereo not drawn)	0.5 (≈ 1.31 µM)	32 (≈ 83.7 µM)	16 (≈ 41.8 µM)	32 (≈ 83.7 µM)	32 (≈ 83.7 µM)	16 (≈ 41.8 µM)	64 (≈ 167 µM)	64 (≈ 167 µM)	16 (≈ 41.8 µM)	64 (≈ 167 µM)	0.5 (≈ 1.31 µM)	0.49
Cc1cc(=O)oc2cc(OCC3CO3)cc(OCC3CO3)c12 (stereo not drawn)	16 (≈ 52.6 µM)	4 (≈ 13.1 µM)	8 (≈ 26.3 µM)	8 (≈ 26.3 µM)	64 (≈ 210 µM)	8 (≈ 26.3 µM)	8 (≈ 26.3 µM)	8 (≈ 26.3 µM)	16 (≈ 52.6 µM)	4 (≈ 13.1 µM)	0.5 (≈ 1.64 µM)	
Cc1cc(=O)oc2cc(OCC(O)Cn3cncn3)c(OCC(O)Cn3cncn3)cc12 (stereo not drawn)	4 (≈ 9.04 µM)	16 (≈ 36.2 µM)	32 (≈ 72.3 µM)	1 (≈ 2.26 µM)	8 (≈ 18.1 µM)	4 (≈ 9.04 µM)	32 (≈ 72.3 µM)	32 (≈ 72.3 µM)	32 (≈ 72.3 µM)	16 (≈ 36.2 µM)	1 (≈ 2.26 µM)	0.65
Cc1cc(=O)oc2cc(OCC(O)Cn3nnc4ccccc43)c(OCC(O)Cn3nnc4ccccc43)cc12 (stereo not drawn)	16 (≈ 29.5 µM)	64 (≈ 118 µM)	16 (≈ 29.5 µM)	8 (≈ 14.7 µM)	32 (≈ 59 µM)	16 (≈ 29.5 µM)	32 (≈ 59 µM)	32 (≈ 59 µM)	256 (≈ 472 µM)	64 (≈ 118 µM)	32 (≈ 59 µM)	0.48
Cc1cc(=O)oc2cc(OCC(O)Cn3cnc4ccccc43)c(OCC(O)Cn3cnc4ccccc43)cc12 (stereo not drawn)	512 (≈ 947 µM)	> 512	128 (≈ 237 µM)	> 512	512 (≈ 947 µM)	64 (≈ 118 µM)	128 (≈ 237 µM)	> 512	512 (≈ 947 µM)	> 512	> 512	0.49
Cc1cc2ncn(CC(O)COc3cc4oc(=O)cc(C)c4cc3OCC(O)Cn3cnc4cc(C)c(C)cc43)c2cc1C (stereo not drawn)	4 (≈ 6.7 µM)	128 (≈ 215 µM)	64 (≈ 107 µM)	16 (≈ 26.8 µM)	32 (≈ 53.6 µM)	32 (≈ 53.6 µM)	16 (≈ 26.8 µM)	16 (≈ 26.8 µM)	64 (≈ 107 µM)	16 (≈ 26.8 µM)	32 (≈ 53.6 µM)	0.61
Cc1cc(=O)oc2cc(OCC(O)CSc3nc4ccccc4[nH]3)c(OCC(O)CSc3nc4ccccc4[nH]3)cc12 (stereo not drawn)	2 (≈ 3.31 µM)	64 (≈ 106 µM)	32 (≈ 52.9 µM)	8 (≈ 13.2 µM)	64 (≈ 106 µM)	16 (≈ 26.5 µM)	16 (≈ 26.5 µM)	16 (≈ 26.5 µM)	64 (≈ 106 µM)	32 (≈ 52.9 µM)	0.5 (≈ 0.827 µM)	0.58
OC(Cn1cncn1)(Cn1cncn1)c1ccc(F)cc1F [FLUCONAZOLE]	8 (≈ 26.1 µM)			1 (≈ 3.27 µM)		4 (≈ 13.1 µM)		16 (≈ 52.2 µM)	256 (≈ 836 µM)			
CCn1cc(C(=O)O)c(=O)c2cc(F)c(N3CCNCC3)cc21 [NORFLOXACIN]		16 (≈ 50.1 µM)	2 (≈ 6.26 µM)		8 (≈ 25.1 µM)		1 (≈ 3.13 µM)			4 (≈ 12.5 µM)	16 (≈ 50.1 µM)	
